Data taken from publication PMC3942691, “The Dipeptide Monoester Prodrugs of Floxuridine and Gemcitabine—Feasibility of Orally Administrable Nucleoside Analogs” (Pharmaceuticals, 2014).
Marks after values point to notes of the source that are not given here.

Tests used:
[1] = tested on: mouse jejunum; test: In situ single-pass intestinal perfusion in mice (Peff); type: in vivo; details: for Peff, mouse perfusion: 100 µM; for fold higher membrane permeability than parent drug: in situ
Method: The perfusion buffer (pH6.0) consisted of 145 mM NaCl, 0.5 mM MgCl2, 1 NaH2PO4, 1 mM CaCl2, 3 mM KCl, 5 mM glucose, and 5 mM MES. The pH of the buffer was adjusted to pH6.0. This perfusion buffer also contained phenol-red (14 µM) as a non-absorbable marker for water flux measurements.
All animal experiments were conducted using protocols approved by the University of Michigan Committee of Use and Care of Animals (UCUCA). Female BALB/c mice (Charles River, IN, USA) weighing 20–25 g were used for all perfusion studies. Prior to each experiment, mice were fasted overnight with free access to water.
The procedure for the in situ single-pass intestinal perfusion is previously reported. Briefly, mice were anesthetized with an i.m. injection of ketamine-xylazine mixture (ketamine: 80–120 mg/kg, xylazine: 5–10 mg/kg) and placed on a heated pad maintained at 37 °C. The abdomen was opened by a midline incision and a jejunal segment (approximately 10 cm) was carefully exposed to cannulate both ends with flexible PVC tubing (2.06 mm i.d., Fisher Scientific Inc., Pittsburgh, PA, USA). All solutions were incubated in a 37 °C water-bath. The isolated segment was rinsed with blank perfusion buffer to clean out any residual debris.
At the start of the study, the test compound (100 µM) in perfusion buffer (pH 6.0) including phenol red was perfused through the intestinal segment (Watson-Marlow Pump 323S, Watson-Marlow Bredel Inc., Wilimington, MA, USA), at the flow rate of 0.1 mL/min. The perfusion buffer was perfused for 30 min to assure steady-state and samples were taken in every 10 min for 90 min. At the end of perfusion, blood samples were collected by cardiac puncture. Blood samples with heparin were centrifuged at 1,000 × g for 10 min at 4 °C to collect plasma samples for LC-MS analysis. Following the termination of the experiment, the length of each perfused intestinal segment was measured.
The net water flux in the mouse perfusion studies was determined using phenol red (14 µM), a non-absorbed and non-metabolized marker. The measured Cout/Cin ratio of test compound was corrected for water flux according to the following equation: [drawing 1] where Cin phenol red and Cout phenol red are equal to the concentration of phenol red in the inlet and the outlet samples, respectively. The effective permeability (Peff; cm/s) through the mouse intestinal wall in the single-pass intestinal perfusion studies was determined according to the following equation: [drawing 2] where Q is the perfusion buffer flow rate (0.1 mL/min), C′out/C′in is the ratio of the outlet/inlet concentration of test compound that is adjusted for water transport, R is the radius of the intestinal segment (set to 0.1 cm), and L is the length of the perfused intestinal segment.
The stability samples of prodrugs and their metabolites, and perfusion samples were determined on an Agilent HPLC system (Agilent Technologies, Santa Clara, CA, USA). The HPLC system consisted of Agilent pumps (1100 series), an Agilent autosampler (1200 series), and an Agilent UV-Vis detector (1100 series) controlled by Chemstation® 32 software (version B.01.03). Samples were resolved in an Agilent Eclipse Plus C18 reverse-phase column (3.5 µm, 4.6 × 75 mm) equipped with a guard column. The mobile phase consisted of 0.1% TFA/water (Solvent A) and 0.1% TFA/acetonitrile (Solvent B) with the solvent B gradient changing from 0%–56% at a rate of […] during a 15 min run for gemcitabine and gemcitabine prodrugs. Standard curves generated for each prodrug and their parent drug were utilized for quantitation of integrated area under peaks. The detection wavelength was 254 nm and spectra were acquired in the 220–380 nm wavelength range. The detection wavelength for phenol red was 430 nm.

[2] = tested on: AsPC-1 cells; test: Uptake study in AsPC-1 cells; type: cell-based; details: 0.1 mM, 1 h
Method: Caco-2, Panc-1, and AsPC-1 cells were grown on a 6-well plate for 18, 6, and 6 days, respectively. Wells were rinsed with MES (pH 6.0) buffer twice. Fresh MES buffer was reapplied to each well and incubated at 37 °C for 15 min. Each drug was individually tested from freshly prepared solutions in MES buffer (0.1 mM, total 0.3 mL) with the presence and the absence of 10 mM glycyl-proline (Gly-Pro). The solution was placed in each well and incubated at 37 °C for 60 min. Drug solution was removed and 3 mL of ice-cold PBS was immediately placed in each well. Each well was rinsed with 3 mL of cold-PBS twice and 0.5 mL of methanol/H2O (1:1) containing 0.1% TFA was placed in each well. The cell suspension was collected and transferred to a new tube. Those tubes were spun at 1,000 × g at 4 °C for 5 min. The supernatant was mixed with equal amount of water with either 0.1% formic acid or 0.1% ammonium hydroxide for LC-MS analysis. The cell pullets were used to determine protein amount with the Bio-Rad DC Protein Assay using bovine serum albumin as a standard.
The LC-MS analytical method of 5′-mono amino acid ester prodrugs of floxuridine has been reported previously. The LC-MS analysis of dipeptide monoester prodrugs of floxuridine and gemcitabine along with their parent drugs was modified and performed in a similar manner. Briefly, LC-MS analysis of the uptake drug amount was performed in triplicate on LCMS-2010EV (Shimadzu Scientific Instruments, Kyoto, Japan) equipped with an ESI (electrospray ionization) source. The Shimadzu LC-MS system consisting of Shimadzu LC-20AD pumps with DGU-20A in-line vacuum degasser units, and SIL-20A HT autosampler with an InertSustain C-18, 2.1 × 50 mm, 3 µm particle size, (GL Sciences, Torrance, CA, USA) was used for the separation and the effluent from the column was introduced directly to the ionization source. The system was controlled by Shimadzu LCMS solution software (version 3) to collect and process data. All samples were run with Solvent A and Solvent B with Solvent B gradient changing from 0%–90% at a rate of 13.8%/min over a 22 min run. […]

[3] = tested on: Caco-2 cell homogenates; details: cited from earlier work
[4] = tested on: AsPC-1 cell homogenates; details: cited from earlier work

| Molecule | Peff, mouse perfusion ([1]; perfusion buffer pH 6.0) | fold higher membrane permeability than parent drug [1] [fold] | Prodrug, share of uptake [2] [%] | Caco-2 cell homogenates t1/2 [3] | AsPC-1 cell homogenates t1/2 [4] | Peff, mouse perfusion ([1]; perfusion buffer pH 6.0, listed as gemcitabine) [cm/s] | Parent drug, share of uptake [2] [%] | Peff, mouse perfusion ([1]; perfusion buffer pH 6.0, listed as floxuridine) [cm/s] |
| --- | --- | --- | --- | --- | --- | --- | --- | --- |
| NC(Cc1ccccc1)C(=O)NC(Cc1ccc(O)cc1)C(=O)OCC1OC(n2cc(F)c(=O)[nH]c2=O)CC1O [5′-L-Phenylalanyl-L-tyrosyl-floxuridine] | 1.9 ± 0.1 ×10^−5 cm/s | 19.0 | 60 | 103.8 ± 55.5 ^b min | 59.7 ± 1.4 ^b min | – | – | – |
| 2′,2′-difluoro-2′-deoxyuridine [Gemcitabine] | 0.2 ± 0.2 ×10^−5 cm/s | – | – | – | – | 2e-06 | 90 | – |
| O=c1[nH]c(=O)n([C@H]2C[C@H](O)[C@@H](CO)O2)cc1F [Floxuridine, 5-fluoro-2′-deoxyuridine] | 0.1 ± 0.8 ×10^−5 cm/s | – | – | 14.3 ± 7.0 ^a min | 6.4 ± 3.2 ^a min | – | – | 1e-06 |
| Nc1ccn(C2OC(COC(=O)C(Cc3ccc(O)cc3)NC(=O)C(N)Cc3ccccc3)C(O)C2(F)F)c(=O)n1 [5′-L-Phenylalanyl-L-tyrosyl-gemcitabine] | 2.2 ± 0.4 ×10^−5 cm/s | 11.0 | 39 | – | – | – | – | – |
